The source of these data is patent US20060275503A1, “Combination treatment with strontium for the prophylaxis and/or treatment of cartilage and/or bone conditions” (Nordic Bone A/S, priority 2003, published 2006).

How the values of series [1] were obtained:
The solubility of the organic carboxylic acid strontium salts, were measured in water. The solubility of these salts was also measured as a function of temperature. This was performed by incubating the saturated solutions of the salts in temperature controlled incubators.
The buffered solutions were immersed into a bath of water temperature controlled at either room temperature (22-24° C.), at 30° C. or at 40° C. […] In order to eliminate any reminiscent strontium chloride influence on the determination of solubility, all the precipitate was collected at the bottom of the test tubes and the solutions above the precipitate were carefully removed and substituted by fresh solutions. […] From these solutions, the dissolved proportions of the strontium salt were collected in volumes of 1 mL at the specified temperature. The solutions were diluted to 50 mL before analysis by Flame Atomic Absorption Spectrometry (F-AAS).
Two methods were used for quantification of strontium in solutions: Flame Atomic Absorption Spectrometry (F-AAS), and the more sensitive inductively-coupled-plasma-mass spectrometry (ICP-MS).
The solubilities were investigated as described above, and strontium content in the saturated solutions determined as described here below.
Some of the very soluble strontium salts were further diluted before analysis by F-AAS. The measurements were performed by using a Perkin-Elmer 2100 equipped with a hydrogen lamp for correction of the background signal. Strontium was measured at a slit with of 0.2 nm, the wavelength was 460.8 nm operated at an energy of 58 and a current of 8 mA.
This analysis was performed using a Perkin Elmer Elan 5000 system equipped with a cross-flow nebulizer. The power was set at 1000 W and the Argon-gas flow was 12 L/min and 0.8 L/min of the torch and plasma gas, respectively.

For series [2] the following is noted: values quoted in scientific literature or reference material such as the Beilstein compendium; cited from earlier work.
Series [3] concerns the target T1, calcium-sensing receptor (CaR) (Homo sapiens, UniProt P41180).
T1 sequence (P41180 20-1078): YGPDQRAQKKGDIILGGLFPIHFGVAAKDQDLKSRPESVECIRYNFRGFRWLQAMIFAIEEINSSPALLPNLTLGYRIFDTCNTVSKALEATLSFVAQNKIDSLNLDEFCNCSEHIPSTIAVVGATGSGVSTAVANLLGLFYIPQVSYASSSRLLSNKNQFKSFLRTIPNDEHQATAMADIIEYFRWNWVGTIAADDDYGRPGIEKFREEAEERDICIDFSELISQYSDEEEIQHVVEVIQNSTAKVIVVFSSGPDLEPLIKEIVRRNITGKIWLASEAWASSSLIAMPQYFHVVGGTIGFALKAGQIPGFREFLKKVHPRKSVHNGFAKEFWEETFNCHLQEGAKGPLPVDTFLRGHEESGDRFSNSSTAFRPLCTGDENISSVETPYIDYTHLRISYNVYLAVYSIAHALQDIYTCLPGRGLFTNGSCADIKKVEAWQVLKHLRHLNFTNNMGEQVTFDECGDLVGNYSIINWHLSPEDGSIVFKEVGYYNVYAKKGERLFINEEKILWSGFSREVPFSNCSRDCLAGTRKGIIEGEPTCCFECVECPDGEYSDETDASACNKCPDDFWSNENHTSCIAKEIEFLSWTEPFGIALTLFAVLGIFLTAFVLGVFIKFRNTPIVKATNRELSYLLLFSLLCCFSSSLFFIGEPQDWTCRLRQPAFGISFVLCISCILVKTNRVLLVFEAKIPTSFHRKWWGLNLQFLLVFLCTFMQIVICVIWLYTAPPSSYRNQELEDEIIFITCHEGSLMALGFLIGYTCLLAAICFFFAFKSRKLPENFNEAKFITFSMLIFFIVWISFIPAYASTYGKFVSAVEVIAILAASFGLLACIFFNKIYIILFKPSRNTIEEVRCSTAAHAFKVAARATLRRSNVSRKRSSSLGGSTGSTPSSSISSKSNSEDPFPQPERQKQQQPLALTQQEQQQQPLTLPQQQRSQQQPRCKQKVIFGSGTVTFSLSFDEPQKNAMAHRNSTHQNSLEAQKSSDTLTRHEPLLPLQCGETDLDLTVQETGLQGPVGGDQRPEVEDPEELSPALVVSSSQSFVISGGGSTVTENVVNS
The following applies: cited from earlier work.

For the compound `O=C([O-])/C=C\C(=O)[O-].[Sr+2]` [Maleate, strontium maleate], in series [1] (pH 7.5), the “solubility in ammonium carbonate buffered solution of pH 7.5 compared with pure water” value was “decreased solubility”.
Regarding `N#Cc1c(N(CC(=O)[O-])CC(=O)[O-])sc(C(=O)[O-])c1CC(=O)[O-].[Sr+2].[Sr+2]` [Ranelate, distrontium salt of 2-[N,N-di(carboxymethyl)amino]-3-cyano-4-carboxymethylthiophene-5-carboxylic acid], in series [1], the “SOLUBILITY AT 40° C. (mg/L) In water” value is listed as 1450 mg/L and the “SOLUBILITY AT ROOM TEMPERATURE (22-24° C. mg/L) In water” value is recorded as 760 mg/L. In series [1] (pH 7.5), the “SOLUBILITY AT 40° C. (mg/L) pH 7.5” value is 1970 mg/L and the “SOLUBILITY AT ROOM TEMPERATURE (22-24° C. mg/L) pH 7.5” value was found to be 890 mg/L.
Consider `[Cl-].[Cl-].[Sr+2]` [SrCl2, strontium chloride], for which the “Solubility, Measured g/L” value in series [1] (commercially available strontium salts, in water at room temperature (22-24)) is recorded as 240 g/L. For the same compound, the “Solubility, Expected value 18° C.” value in series [2] is reported as 538 g/L.
As to `[Sr+2]` [strontium], in series [3], the “activity at the calcium-sensing receptor (CaR)” value is listed as “full agonist”.
